Measurements: US12486489B2, “Culture medium for testing drug resistance of H.pylori as well as preparation method and use thereof” (priority 2022, dated 2025)

Legend:
H. pylori [1] = assay: Verification of resistance breakpoint: growth of laboratory strains on Columbia solid culture medium with added antibiotics, 72 hours; assay type: cell-based, Helicobacter pylori; conditions: for optimal concentration for adding antibiotics: conclusion of breakpoint verification
Method: The plates are cooled and inverted for approximately 10 mL/piece, marked properly for the subsequent use.
(2) Preparation of bacterial solution: H. pylori grown in logarithmic phase on a solid plate is taken to prepare a bacterial suspension by using BHI. The concentration OD600 is adjusted to 0.3 (1×10^8 CFU/mL), diluted 10 times for the subsequent use.
(3) Inoculation of bacterial solution: 10 μL of bacterial solution is taken and added to Columbia culture medium and the results are determined after cultivating for 72 hours.
(4) Result determination: the minimum drug concentration for no growth of bacteria on the plate is the minimum inhibitory concentration of the bacteria against the drug.

H. pylori [2] = conditions: bacterial count 1×10^6 CFU/mL; cited from earlier work
H. pylori [3] = assay: Drug resistance testing of laboratory strains on characteristic culture medium (discoloration after 36 hours); assay type: cell-based, Helicobacter pylori
Method: The characteristic culture media (A, B, C, D, E) are cultivated at a constant temperature of 37° C. for 36 hours in a three gas incubator. The characteristic culture media are removed and placed in a natural environment for 30 minutes to observe whether there are discolorations at the point of the culture medium where the specimen is dropped in. […] Another 100 μL of the specimen is taken and coated on Columbia solid culture medium and cultivated in a three gas incubator at a constant temperature of 37° C. for 3 days to 5 days. The number of colonies on the plate is counted to determine the initial inoculation amount. The micro dilution method is adopted to test the MIC of clinical specimen H. pylori, the test is meaningful only when there is no bacterial growth in the negative control well without bacteria and there is bacterial growth in the positive well with bacteria but without antibiotics. […] The results are recorded and whether the micro dilution method and characteristic culture medium are consistent with each other in evaluating the drug resistance of clinical H. pylori strains is compared. […]
(2) Inoculation of bacterial solution: 10 μL bacterial solution is taken and added dropwise onto a characteristic culture medium with 5 pieces (ABCDE) in total.
(3) Culture: all plates are moved to a three gas incubator and cultivated at 37° C. for 36 hours. After being taken out and placed in a natural environment for 30 minutes, whether the bacteria have resistance is determined based on the discoloration of the characteristic culture medium.

[4] = test system: clinical H. pylori strain; assay: Drug resistance testing of clinical specimens on characteristic culture medium (discoloration after 36 hours); assay type: cell-based, Helicobacter pylori
Method: The characteristic culture media (A, B, C, D, E) are cultivated at a constant temperature of 37° C. for 36 hours in a three gas incubator. The characteristic culture media are removed and placed in a natural environment for 30 minutes to observe whether there are discolorations at the point of the culture medium where the specimen is dropped in. […] Another 100 μL of the specimen is taken and coated on Columbia solid culture medium and cultivated in a three gas incubator at a constant temperature of 37° C. for 3 days to 5 days. The number of colonies on the plate is counted to determine the initial inoculation amount. The micro dilution method is adopted to test the MIC of clinical specimen H. pylori, the test is meaningful only when there is no bacterial growth in the negative control well without bacteria and there is bacterial growth in the positive well with bacteria but without antibiotics.
(1) Transfer liquid preparation: after sterilization and cooling, BHI culture medium is added with 10% calf serum, followed by 30% glycerol to prepare H. pylori preservation solution. On this basis, 1% H. pylori selective additive is added to prepare the transfer liquid. 1 mL of transfer solution is taken into a sterile EP tube, and 6-8 sterilized small steel balls are poured into the EP tube for the subsequent use.
(3) Specimen acquisition: a biopsy tissue group is obtained from the gastric antrum and a small curvature side of the gastric body through a gastroscopy biopsy passage and placed into an EP tube (strictly sterile operation). The biopsy tissue is placed on the ice surface and transferred as soon as possible (within 2 hours) to complete the subsequent steps.
(4) Preparation of bacterial solution containing tissue: the EP tube containing tissue is placed in a homogenizer at 300 hz and crushed for 5 minutes, transferred to another EP, centrifuged at 12000 rpm for 2 minutes, the supernatant is discarded, BHI is resuspended to 200 μL, and a bacterial suspension is prepared for the subsequent use.
(5) Inoculation of bacterial solution: 10 μL of bacterial solution is taken and added dropwise to the characteristic culture medium (5 pieces in total). The characteristic culture medium is removed after cultivating in a three gas incubator at 37° C. for 36 hours, and the results are determined after leaving for 30 minutes; another 100 μL is taken and coated onto Colombian culture medium for the traditional bacterial culture.

[5] = strain 159, antibiotic 0.25 μg/mL
[6] = strain 159, antibiotic 0.5 μg/mL
[7] = strain 161, antibiotic 0.25 μg/mL
[8] = strain 161, antibiotic 0.5 μg/mL
[9] = strain 162, antibiotic 0.25 μg/mL
[10] = strain 162, antibiotic 0.5 μg/mL
[11] = strain 163, antibiotic 0.25 μg/mL
[12] = strain 163, antibiotic 0.5 μg/mL
[13] = strain 286, antibiotic 0.25 μg/mL
[14] = strain 286, antibiotic 0.5 μg/mL
[15] = strain 287, antibiotic 0.25 μg/mL
[16] = strain 287, antibiotic 0.5 μg/mL
[17] = strain 289, antibiotic 0.25 μg/mL
[18] = strain 289, antibiotic 0.5 μg/mL
[19] = strain 290, antibiotic 0.25 μg/mL
[20] = strain 290, antibiotic 0.5 μg/mL
[21] = strain 26695, antibiotic 0.25 μg/mL
[22] = strain 26695, antibiotic 0.5 μg/mL
[23] = strain 26695, antibiotic 1 μg/mL
[24] = strain G27, antibiotic 0.25 μg/mL
[25] = strain G27, antibiotic 0.5 μg/mL

With `CC[C@H]1OC(=O)[C@H](C)[C@@H](O[C@H]2C[C@@](C)(OC)[C@@H](O)[C@H](C)O2)[C@H](C)[C@@H](O[C@@H]2O[C@H](C)C[C@H](N(C)C)[C@H]2O)[C@](C)(OC)C[C@@H](C)C(=O)[C@H](C)[C@@H](O)[C@]1(C)O` [Clarithromycin, clarithromycin] the “optimal concentration for adding antibiotics” value (H. pylori [1]) was 0.5 µg/mL, the “growth of sensitive strains” value (H. pylori [1]; levofloxacin 0.5, clarithromycin 0.5, metronidazole 4, amoxicillin 0.5 μg/mL) was “no sensitive strain grows” and the growth of bacterial (H. pylori [1]; [5]) was “+”. For the same compound, the growth of bacterial (H. pylori [1]; [6]) was “+”, the growth of bacterial (H. pylori [1]; strain 159, antibiotic 1 μg/mL) was “−” and the growth of bacterial (H. pylori [1]; [7]) was “+”. For the same compound, the growth of bacterial (H. pylori [1]; [8]) was “+”, the growth of bacterial (H. pylori [1]; strain 161, antibiotic 1 μg/mL) was “−” and the growth of bacterial (H. pylori [1]; [9]) was “+”. The growth of bacterial (H. pylori [1]; [10]) was “+”, the growth of bacterial (H. pylori [1]; strain 162, antibiotic 1 μg/mL) was “−” and the growth of bacterial (H. pylori [1]; [11]) was “−”. For the same compound, the growth of bacterial (H. pylori [1]; [12]) was “−”, the growth of bacterial (H. pylori [1]; strain 163, antibiotic 1 μg/mL) was “−” and the growth of bacterial (H. pylori [1]; [13]) was “+”. The growth of bacterial (H. pylori [1]; [14]) was “+”, the growth of bacterial (H. pylori [1]; strain 286, antibiotic 1 μg/mL) was “−” and the growth of bacterial (H. pylori [1]; [15]) was “+”. For the same compound, the growth of bacterial (H. pylori [1]; [16]) was “+”, the growth of bacterial (H. pylori [1]; strain 287, antibiotic 1 μg/mL) was “−” and the growth of bacterial (H. pylori [1]; [17]) was “+”. The growth of bacterial (H. pylori [1]; [18]) was “+”, the growth of bacterial (H. pylori [1]; strain 289, antibiotic 1 μg/mL) was “+” and the growth of bacterial (H. pylori [1]; [19]) was “+”. For the same compound, the growth of bacterial (H. pylori [1]; [20]) was “+”, the growth of bacterial (H. pylori [1]; strain 290, antibiotic 1 μg/mL) was “−” and the growth of bacterial (H. pylori [1]; [21]) was “+”. For the same compound, the growth of bacterial (H. pylori [1]; [22]) was “−”, the growth of bacterial (H. pylori [1]; [23]) was “−” and the growth of bacterial (H. pylori [1]; [24]) was “+”. The growth of bacterial (H. pylori [1]; [25]) was “−”, the growth of bacterial (H. pylori [1]; strain G27, antibiotic 1 μg/mL) was “−” and the “resistance breakpoints of H. pylori according to CLSI guidelines” value (H. pylori [2]) was 2 µg/mL. The “drug resistance determined by discoloration of characteristic culture medium” value (H. pylori [3]; strain 159, 1×10^6 CFU/mL) was “developed resistance”, the “drug resistance determined by discoloration of characteristic culture medium” value (H. pylori [3]; strain 286, 1×10^6 CFU/mL) was “have developed resistance” and the “drug resistance determined by discoloration of characteristic culture medium” value (H. pylori [3]; strain 287, 1×10^6 CFU/mL) was “have developed resistance”. The “drug resistance determined by discoloration of characteristic culture medium” value (H. pylori [3]; strain 289, 1×10^6 CFU/mL) was “have developed resistance”, the “drug resistance determined by discoloration of characteristic culture medium” value (H. pylori [3]; strain G27, 1×10^6 CFU/mL) was “does not develop resistance” and the “drug resistance determined on characteristic culture medium” value ([4]; clinical H. pylori strain FY-31) was “sensitive”. The “drug resistance determined on characteristic culture medium” value ([4]; clinical H. pylori strain FY-43) was “sensitive”, the “drug resistance determined on characteristic culture medium” value ([4]; clinical H. pylori strain FY-47) was “sensitive” and the “drug resistance determined on characteristic culture medium” value ([4]; clinical H. pylori strain FY-52) was “sensitive”.
For `C[C@H]1COc2c(N3CCN(C)CC3)c(F)cc3c(=O)c(C(=O)O)cn1c23` [Levofloxacin, levofloxacin], the “optimal concentration for adding antibiotics” value (H. pylori [1]) was 0.5 µg/mL, the growth of bacterial (H. pylori [1]; [5]) was “+” and the growth of bacterial (H. pylori [1]; [6]) was “+”. The growth of bacterial (H. pylori [1]; strain 159, antibiotic 1 μg/mL) was “−”, the growth of bacterial (H. pylori [1]; [7]) was “+” and the growth of bacterial (H. pylori [1]; [8]) was “+”. For the same compound, the growth of bacterial (H. pylori [1]; strain 161, antibiotic 1 μg/mL) was “−”, the growth of bacterial (H. pylori [1]; [9]) was “+” and the growth of bacterial (H. pylori [1]; [10]) was “+”. The growth of bacterial (H. pylori [1]; strain 162, antibiotic 1 μg/mL) was “−”, the growth of bacterial (H. pylori [1]; [11]) was “+” and the growth of bacterial (H. pylori [1]; [12]) was “+”. For the same compound, the growth of bacterial (H. pylori [1]; strain 163, antibiotic 1 μg/mL) was “−”, the growth of bacterial (H. pylori [1]; [13]) was “+” and the growth of bacterial (H. pylori [1]; [14]) was “+”. The growth of bacterial (H. pylori [1]; strain 286, antibiotic 1 μg/mL) was “−”, the growth of bacterial (H. pylori [1]; [15]) was “+” and the growth of bacterial (H. pylori [1]; [16]) was “+”. The growth of bacterial (H. pylori [1]; strain 287, antibiotic 1 μg/mL) was “−”, the growth of bacterial (H. pylori [1]; [17]) was “+” and the growth of bacterial (H. pylori [1]; [18]) was “+”. The growth of bacterial (H. pylori [1]; strain 289, antibiotic 1 μg/mL) was “+”, the growth of bacterial (H. pylori [1]; [19]) was “+” and the growth of bacterial (H. pylori [1]; [20]) was “+”. The growth of bacterial (H. pylori [1]; strain 290, antibiotic 1 μg/mL) was “+”, the growth of bacterial (H. pylori [1]; [21]) was “−” and the growth of bacterial (H. pylori [1]; [22]) was “−”. The growth of bacterial (H. pylori [1]; [23]) was “−”, the growth of bacterial (H. pylori [1]; [24]) was “+” and the growth of bacterial (H. pylori [1]; [25]) was “−”. For the same compound, the growth of bacterial (H. pylori [1]; strain G27, antibiotic 1 μg/mL) was “−”.
